Data on 17 compounds can be found in patent US11485742B2, “2-azaspiro[3.4]octane derivatives as M4 agonists” (NOVARTIS AG, priority 2019, dated 2022).

As usually defined, the EC50 is the concentration at which the effect is half-maximal.

The target in experiment [1] is T1, human cloned CHRM2 receptor (Homo sapiens, UniProt P08172).
T1 construct: expressed in transfected cells; host or cells: CHO-K1 (M2_CHO)
T1 sequence (P08172 1-466): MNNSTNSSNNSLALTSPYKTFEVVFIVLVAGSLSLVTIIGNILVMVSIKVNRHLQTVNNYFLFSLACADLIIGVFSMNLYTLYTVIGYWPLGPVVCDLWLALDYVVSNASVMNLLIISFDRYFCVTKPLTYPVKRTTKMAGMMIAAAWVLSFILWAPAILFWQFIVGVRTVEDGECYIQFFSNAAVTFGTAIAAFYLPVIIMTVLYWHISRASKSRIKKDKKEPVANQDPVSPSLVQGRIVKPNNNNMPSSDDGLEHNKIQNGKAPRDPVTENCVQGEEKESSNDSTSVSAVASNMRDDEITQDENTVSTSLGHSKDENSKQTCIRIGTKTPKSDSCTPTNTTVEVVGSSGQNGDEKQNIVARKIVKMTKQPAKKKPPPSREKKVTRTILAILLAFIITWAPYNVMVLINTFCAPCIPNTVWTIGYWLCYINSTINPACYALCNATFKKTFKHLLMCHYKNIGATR
Briefly: CHRM2 Ca++ Flux Assay (M2_CHO cells, agonist mode). The following applies: M2 CHO cells; for EC50: agonist mode, geometric mean if tested more than once, read-out: M2 FDSS EC50; for Emax: Percent Activity (PA) measured to EC100 of Carbachol, read-out: M2 FDSS PA %. The experiment is classed as cell-based. The essentials: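 CHO-K1 cells stably expressing human CHRM2 were plated overnight at 12K cells/well and loaded with Ca++ dye for 1–2 h. They were then held 60 minutes in HBSS −Ca/−Mg, 20 mM HEPES, 2.5 mM probenecid, 20 μM ATP. Agonist-mode Ca++ flux was read over 3 minutes. Four-parameter fits of triplicates gave percent activity relative to carbachol EC100.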

In experiment [2] the target is T2, human cloned CHRM5 receptor (Homo sapiens, UniProt P08912).
T2 construct: expressed in transfected cells; host or cells: CHO (M5_CHO)
T2 sequence (P08912 1-532): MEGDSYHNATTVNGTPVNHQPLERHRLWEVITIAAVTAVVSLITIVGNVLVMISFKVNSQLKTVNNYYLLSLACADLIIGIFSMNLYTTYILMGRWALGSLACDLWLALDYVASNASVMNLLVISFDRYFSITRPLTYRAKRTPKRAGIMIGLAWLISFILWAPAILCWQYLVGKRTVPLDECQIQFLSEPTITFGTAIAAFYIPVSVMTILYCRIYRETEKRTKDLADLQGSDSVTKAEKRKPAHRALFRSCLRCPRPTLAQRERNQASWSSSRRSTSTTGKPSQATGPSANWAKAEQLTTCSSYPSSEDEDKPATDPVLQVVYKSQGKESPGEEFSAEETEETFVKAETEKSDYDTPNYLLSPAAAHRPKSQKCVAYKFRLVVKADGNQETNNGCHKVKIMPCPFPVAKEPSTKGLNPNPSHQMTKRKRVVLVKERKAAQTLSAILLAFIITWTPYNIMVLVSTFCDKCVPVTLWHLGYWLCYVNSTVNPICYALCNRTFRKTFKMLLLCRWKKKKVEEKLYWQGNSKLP
Briefly: CHRM5 Ca++ Flux Assay (M5_CHO cells, agonist mode). The experiment is classed as cell-based. To be noted: for Emax: Percent Activity (PA) measured to EC100 of Carbachol, read-out: M5 FDSS PA %; for EC50: agonist mode, geometric mean if tested more than once, read-out: M5 FDSS EC50. Summed up:
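CHO-K1 cells stably expressing human M3 or M5 receptor, dye-loaded ≥1 h, treated with 11-point compound doses in triplicate; Ca++ flux read over 3 min (FDSS). Agonist-mode four-parameter fit; percent activity relative to carbachol EC100; repeat tests reported as geometric mean.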

On to `Fc1ccc(OCc2ncccn2)c(C2CCN([C@@H]3COC4(C3)CN(c3nnco3)C4)CC2)c1` [Example 2I, (S)-7-(4-(5-fluoro-2-(pyrimidin-2-ylmethoxy)phenyl)piperidin-1-yl)-2-(1,3,4-oxadiazol-2-yl)-5-oxa-2-azaspiro[3.4]octane], for which, in experiment [1], the EC50 is 0.109 µM and the Emax was 35%. Besides, in experiment [2], the Emax was 0% and the EC50 was > 25 µM.
For `c1ccc(C2CCN([C@@H]3COC4(C3)CN(c3nnco3)C4)CC2)c(-c2ncco2)c1` [Example 1X, (S)-2-(1,3,4-oxadiazol-2-yl)-7-(4-(2-(oxazol-2-yl)phenyl)piperidin-1-yl)-5-oxa-2-azaspiro[3.4]octane], in that order: 2.48 µM, 25%, 0% and > 25 µM.
For `CC(C)(O)COc1ccc(F)cc1C1CCN([C@@H]2COC3(C2)CN(c2nnco2)C3)CC1` [Example 1U, (S)-1-(2-(1-(2-(1,3,4-oxadiazol-2-yl)-5-oxa-2-azaspiro[3.4]octan-7-yl)piperidin-4-yl)-4-fluorophenoxy)-2-methylpropan-2-ol], in that order: > 25 µM, 0%, 0% and > 25 µM.
On the same counts, the results for `c1ccc(C2CCN([C@@H]3COC4(C3)CN(c3nnco3)C4)CC2)c(-c2cncnc2)c1` [Example 1W, (S)-2-(1,3,4-oxadiazol-2-yl)-7-(4-(2-(pyrimidin-5-yl)phenyl)piperidin-1-yl)-5-oxa-2-azaspiro[3.4]octane] are 0.527 µM, 68%, 20% and 13.8 µM.
Consider `CC(C)(O)CCOc1cc(F)ccc1C1CCN([C@@H]2COC3(C2)CN(c2nncs2)C3)CC1` [Example 5V, (S)-4-(2-(1-(2-(1,3,4-thiadiazol-2-yl)-5-oxa-2-azaspiro[3.4]octan-7-yl)piperidin-4-yl)-5-fluorophenoxy)-2-methylbutan-2-ol], for which the EC50 in experiment [1] and in experiment [2] was > 25 µM each time. The Emax in experiment [1] and in experiment [2] was 0% each time.
`CC1(COc2ccc(F)cc2C2CCN([C@@H]3COC4(C3)CN(c3nncs3)C4)CC2)COC1` [Example 2B, (S)-7-(4-(5-fluoro-2-((3-methyloxetan-3-yl)methoxy)phenyl)piperidin-1-yl)-2-(1,3,4-thiadiazol-2-yl)-5-oxa-2-azaspiro[3.4]octane]: in experiment [1], the EC50 is 0.416 µM and the Emax was determined as 35%. For the same compound, in experiment [2], the Emax was determined as 0% and the EC50 was > 25 µM.
On the same counts, the results for `Fc1ccc(OC2COCOC2)c(C2CCN([C@@H]3COC4(C3)CN(c3nnco3)C4)CC2)c1` [Example 1M, (S)-7-(4-(2-((1,3-dioxan-5-yl)oxy)-5-fluorophenyl)piperidin-1-yl)-2-(1,3,4-oxadiazol-2-yl)-5-oxa-2-azaspiro[3.4]octane] are 0.752 µM, 23%, 0% and > 25 µM.
With `COc1ccc(F)cc1C1CCN([C@@H]2COC3(C2)CN(c2nnco2)C3)CC1` [Example 1V, (S)-7-(4-(5-fluoro-2-methoxyphenyl)piperidin-1-yl)-2-(1,3,4-oxadiazol-2-yl)-5-oxa-2-azaspiro[3.4]octane], the EC50 was 0.598 µM in experiment [1] and > 25 µM in experiment [2]. Besides, the values for the Emax in experiment [1] and in experiment [2] were 35% and 0%, respectively.
On to `Fc1ccc(OC2CC3(COC3)C2)c(C2CCN([C@@H]3COC4(C3)CN(c3ncon3)C4)CC2)c1` [Example 6C, (S)-7-(4-(2-((2-oxaspiro[3.3]heptan-6-yl)oxy)-5-fluorophenyl)piperidin-1-yl)-2-(1,2,4-oxadiazol-3-yl)-5-oxa-2-azaspiro[3.4]octane], for which the EC50 in experiment [1] is 1.51 µM; in experiment [2], > 25 µM. In addition, the Emax in experiment [1] stood at 18%; in experiment [2], 0%.
With `Fc1ccc(OC[C@H]2CCCO2)c(C2CCN([C@@H]3COC4(C3)CN(c3nnco3)C4)CC2)c1` [Example 2M, (S)-7-(4-(5-fluoro-2-(((R)-tetrahydrofuran-2-yl)methoxy)phenyl)piperidin-1-yl)-2-(1,3,4-oxadiazol-2-yl)-5-oxa-2-azaspiro[3.4]octane], in experiment [1], the EC50 stood at 2.03 µM and the Emax is 20%. In experiment [2], the Emax amounted to 0% and the EC50 was > 25 µM.
On the same counts, the results for `Cc1nnc(-c2ccccc2C2CCN([C@@H]3COC4(C3)CN(c3nnco3)C4)CC2)o1` [Example 1Y, (S)-7-(4-(2-(5-methyl-1,3,4-oxadiazol-2-yl)phenyl)piperidin-1-yl)-2-(1,3,4-oxadiazol-2-yl)-5-oxa-2-azaspiro[3.4]octane] are 0.874 µM, 35%, 0% and > 25 µM.
On the same counts, the results for `Fc1ccc(OC2COC2)c(C2CCN([C@@H]3COC4(C3)CN(c3ncon3)C4)CC2)c1` [Example 6B, (S)-7-(4-(5-fluoro-2-(oxetan-3-yloxy)phenyl)piperidin-1-yl)-2-(1,2,4-oxadiazol-3-yl)-5-oxa-2-azaspiro[3.4]octane] are 0.39 µM, 38%, 0% and > 25 µM.
Regarding `Cc1cc(COc2ccc(F)cc2C2CCN([C@@H]3COC4(C3)CN(c3nnco3)C4)CC2)on1` [Example 2G, (S)-7-(4-(5-fluoro-2-((3-methylisoxazol-5-yl)methoxy)phenyl)piperidin-1-yl)-2-(1,3,4-oxadiazol-2-yl)-5-oxa-2-azaspiro[3.4]octane], in experiment [1], the EC50 is 0.061 µM and the Emax was found to be 55%. Moreover, in experiment [2], the Emax was 0% and the EC50 is > 25 µM.
On the same counts, the results for `COC(C)(C)CCOc1ccc(F)cc1C1CCN([C@@H]2COC3(C2)CN(c2nnco2)C3)CC1` [Example 1K, (S)-7-(4-(5-fluoro-2-(3-methoxy-3-methylbutoxy)phenyl)piperidin-1-yl)-2-(1,3,4-oxadiazol-2-yl)-5-oxa-2-azaspiro[3.4]octane] are > 25 µM, 0%, 0% and > 25 µM.
For `COc1ccccc1C1CCN([C@@H]2COC3(C2)CN(c2nnco2)C3)CC1` [Example 1Q, (S)-7-(4-(2-methoxyphenyl)piperidin-1-yl)-2-(1,3,4-oxadiazol-2-yl)-5-oxa-2-azaspiro[3.4]octane], in that order: 3.81 µM, 16%, 0% and > 25 µM.
Consider `Fc1cc(O[C@@H]2CCOC2)c(C2CCN([C@@H]3COC4(C3)CN(c3nnco3)C4)CC2)cc1F` [Example 1R, (S)-7-(4-(4,5-difluoro-2-(((R)-tetrahydrofuran-3-yl)oxy)phenyl)piperidin-1-yl)-2-(1,3,4-oxadiazol-2-yl)-5-oxa-2-azaspiro[3.4]octane], for which the EC50 in experiment [1] was 0.359 µM; in experiment [2], > 25 µM. Moreover, the Emax was 32% in experiment [1] and 0% in experiment [2].
`CCC1(COc2ccc(F)cc2C2CCN([C@@H]3COC4(C3)CN(c3nnco3)C4)CC2)COC1` [Example 2P, (S)-7-(4-(2-((3-ethyloxetan-3-yl)methoxy)-5-fluorophenyl)piperidin-1-yl)-2-(1,3,4-oxadiazol-2-yl)-5-oxa-2-azaspiro[3.4]octane]: in experiment [1], the EC50 amounted to 1.07 µM and the Emax came to 36%. Besides, in experiment [2], the Emax amounted to 0% and the EC50 was > 25 µM.
